Measured values: patent publication US20110319379A1, “Substituted Indazole Amides And Their Use As Glucokinase Activators” (priority 2009, published 2011)
pEC50: −log10 of the molar value.

The compounds below were run against T1, recombinant human glucokinase (Homo sapiens, UniProt P35557) (assay: Assay 2: Evaluating Activator Potency in a Matrix Assay at Multiple Glucose Concentrations). Conditions: Assay 2 matrix assay; 16 glucose concentrations; intrinsic EC50 = concentration affording a 50% reduction in the enzyme's Km (for glucose); read-out: Glucokinase EC50.
T1 construct: Full-length glucokinase (beta cell isoform) was His-tagged at the N-terminus and purified by a Ni column followed by size exclusion chromatography as described above; His tag; made in house; host or cells: E. coli BL21(DE3), vector pBCGK
T1 sequence (P35557 1-465): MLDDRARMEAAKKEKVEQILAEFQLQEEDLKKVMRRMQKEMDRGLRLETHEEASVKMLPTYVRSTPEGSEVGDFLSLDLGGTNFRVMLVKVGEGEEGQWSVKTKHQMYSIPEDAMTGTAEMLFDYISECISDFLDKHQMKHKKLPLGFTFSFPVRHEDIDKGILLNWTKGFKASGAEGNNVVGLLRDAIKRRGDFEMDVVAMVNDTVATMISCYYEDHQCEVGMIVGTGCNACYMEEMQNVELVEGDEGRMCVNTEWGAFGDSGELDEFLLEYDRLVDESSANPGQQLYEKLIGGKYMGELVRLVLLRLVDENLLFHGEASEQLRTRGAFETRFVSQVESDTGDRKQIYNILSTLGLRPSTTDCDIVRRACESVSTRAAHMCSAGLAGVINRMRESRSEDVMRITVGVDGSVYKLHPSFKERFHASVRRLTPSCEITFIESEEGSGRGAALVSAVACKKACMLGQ
Assay type: biochemical
Description: Representative compounds of this invention were evaluated in biochemical assays (Assay 1 or Assay 2) to characterize their glucokinase activation properties.
The recombinant human glucokinase protein utilized in both assays was prepared and purified as described below.
BL21(DE3) cells (Invitrogen Corporation, Carlsbad, Calif.) containing pBCGK (C or N H is) vector were grown at 37° C. (in 2XYT) until the OD600 was between 0.6-1.0. Expression was induced by addition of isopropylthiogalactoside to a final concentration of 0.1-0.2 mM to the cells which were then incubated overnight at 23° C. The next day, cells were harvested via centrifugation at 5000 rpm for 15 minutes at 4° C. The cell pellet was stored at −80° C. for future purification.
Beta Cell Glucokinase His-Taq Purification Conditions: A Ni-NTA (Quigan, Germantown, Md.) column (15-50 mL) was used for separation. Two buffers were prepared, 1) a lysis/nickel equilibration and wash buffer and 2) a nickel elution buffer. The lysis/equilibration/wash buffer was prepared as such: 25 mM HEPES buffer at pH 7.5, 250 mM NaCl, 20 mM imidazole, and 14 mM β-mercaptoethanol as final concentrations. The elution buffer was prepared as such: 25 mM HEPES at pH 7.5, 250 mM NaCl, 400 mM imidazole, and 14 mM β-mercaptoethanol as final concentrations. The buffers were each filtered with a 0.22 μm filter prior to use. The cell pellet (1 L culture) was resuspended in 300 mL of the lysis/equilibration buffer. The cells were then lysed (3 times) with a Microfluidics Model 110Y microfluidizer (Microfluidics Corporation, Newton, Mass.). The slurry was centrifuged with a Beckman Coulter Model LE-80K ultracentrifuge (Beckman Coulter, Fullerton, Calif.) at 40,000 rpm for 45 minutes at 4° C. The supernatant was transferred to a chilled flask. A volume of 20 μl was saved for gel analysis. A Pharmacia AKTA (GMI, Inc., Ramsey, Minn.) purification system was used for separation. The prime lines were purged with lysis/equilibration buffer. The Ni-NTA column was equilibrated with 200 mL of the lysis/equilibration buffer at a flow rate of 5 mL/minute. The supernantant was loaded over the column at 4 mL/minute and the flow-through was collected in a flask. The unbound proteins were washed with lysis/equilibration buffer at a flow rate of 5 mL/minute until the ultraviolet reaches baseline. The protein was then eluted from the column with the imidazole elution buffer via imidazole gradient 20 mM to 400 mM over 320 mL. The column was then stripped of any additional protein with 80 mL of the elution buffer. The elution fractions were each 8 mL, for a total yield of 50 samples. Fractions were analyzed by sodium dodecyl sulfate polyacrylamide (SDS-PAGE) and the fractions containing protein of interest were pooled and concentrated to 10 mL using ultrafiltration cell with a 10,000 molecular weight cut-off (MWCO) Millipore membrane (Sigma-Aldrich, St. Louis, Mo.) under nitrogen gas (60 psi). Protein was further purified by size exclusion chromatography (SEC) using a […] (320 mL) (Amersham Pharmacia, Uppsala, Sweden). SEC was equilibrated with 450 mL sizing buffer containing 25 mM HEPES pH 7.0, 50 mM NaCl, and 5 mM dithiothreitol. Concentrated protein was then loaded over SEC and elution with 400 mL sizing buffer was performed overnight at 0.5 mL/minute. The elution fractions were 5 mL each. The fractions were analyzed by SDS-PAGE and protein containing fractions were pooled. Concentration was measured using Bradford Assay/BSA Standard. Purified protein was stored in small aliquots at −80° C.
Assay 2: Evaluating Activator Potency in a Matrix Assay at Multiple Glucose Concentrations
Utilizing an adaptation of this method, representative compounds of the current invention were evaluated at 22 different concentrations and 16 different glucose concentrations in a coupled enzyme assay system that detects glucokinase activity via depletion of β-NADH.

Row | SMILES | pEC50
1 | CCn1cc2c(Oc3ccc(S(C)(=O)=O)cc3)cc(C(=O)Nc3ncns3)cc2n1 [Example 1CL, 2-ethyl-4-[4-(methylsulfonyl)phenoxy]-N-1,2,4-thiadiazol-5-yl-2H-indazole-6-carboxamide] | 6.04
2 | Cn1cc2c(Oc3cnc(C(=O)N4CCC4)cn3)cc(C(=O)Nc3cnn(C)n3)cc2n1 [Example 1AH, 4-(5-(azetidine-1-carbonyl)pyrazin-2-yloxy)-2-methyl-N-(2-methyl-2H-1,2,3-triazol-4-yl)-2H-indazole-6-carboxamide] | 4.44
3 | Cn1cc(NC(=O)c2cc(Oc3ccc(S(C)(=O)=O)cc3)c3cn(C)nc3c2)nn1 [Example 1CJ, 2-methyl-4-[4-(methylsulfonyl)phenoxy]-N-(1-methyl-1H-1,2,3-triazol-4-yl)-2H-indazole-6-carboxamide] | 6.55
4 | CCn1cc2c(Oc3ccc(S(C)(=O)=O)cc3)cc(C(=O)Nc3ccc(C(=O)OC)cn3)cc2n1 [Example 1CK, methyl 6-[({2-ethyl-4-[4-(methylsulfonyl)phenoxy]-2H-indazol-6-yl}carbonyl)amino]nicotinate] | 6.40
5 | CCn1cc2c(Oc3ccc(S(C)(=O)=O)cc3)cc(C(=O)Nc3cnc(C)cn3)cc2n1 [Example 1CB, 2-ethyl-N-(5-methylpyrazin-2-yl)-4-[4-(methylsulfonyl)phenoxy]-2H-indazole-6-carboxamide] | 6.27
6 | CCc1cnc(NC(=O)c2cc(Oc3ccc(S(N)(=O)=O)cc3)c3cn(CC)nc3c2)cn1 [Example 1CU, 4-[4-(aminosulfonyl)phenoxy]-2-ethyl-N-(5-ethylpyrazin-2-yl)-2H-indazole-6-carboxamide] | 5.86
7 | CCn1cc2c(Oc3cnc(C(=O)N4CCCC4)cn3)cc(C(=O)Nc3cnc(C)cn3)cc2n1 [Example 1BP, 2-ethyl-N-(5-methylpyrazin-2-yl)-4-(5-(pyrrolidine-1-carbonyl)pyrazin-2-yloxy)-2H-indazole-6-carboxamide] | 6.54
8 | CCn1ccc(NC(=O)c2cc(Oc3ccc(S(C)(=O)=O)cc3)c3cn(CC)nc3c2)n1 [Example 1BM, 2-ethyl-N-(1-ethyl-1H-pyrazol-3-yl)-4-[4-(methylsulfonyl)phenoxy]-2H-indazole-6-carboxamide] | 5.72
9 | CCn1cc2c(Oc3cnc(C(=O)N(C)C)cn3)cc(C(=O)Nc3cnn(C)n3)cc2n1 [Example 1BZ, 4-(5-(dimethylcarbamoyl)pyrazin-2-yloxy)-2-ethyl-N-(2-methyl-2H-1,2,3-triazol-4-yl)-2H-indazole-6-carboxamide] | 4.60
10 | Cn1ccc(NC(=O)c2cc(Oc3cnc(C(=O)N4CCC4)cn3)c3cn(C)nc3c2)n1 [Example 1BS, 4-(5-(azetidine-1-carbonyl)pyrazin-2-yloxy)-2-methyl-N-(1-methyl-1H-pyrazol-3-yl)-2H-indazole-6-carboxamide] | 6.10
11 | CCn1cc2c(Oc3cnc(C(=O)N4CCC4)cn3)cc(C(=O)Nc3cnn(C)n3)cc2n1 [Example 1BX, 4-(5-(azetidine-1-carbonyl)pyrazin-2-yloxy)-2-ethyl-N-(2-methyl-2H-1,2,3-triazol-4-yl)-2H-indazole-6-carboxamide] | 4.82
12 | CCn1cc2c(Oc3ccc(S(C)(=O)=O)cc3)cc(C(=O)Nc3ccc(C(N)=O)cn3)cc2n1 [Example 1CD, N-(5-carbamoylpyridin-2-yl)-2-ethyl-4-[4-(methylsulfonyl)phenoxy]-2H-indazole-6-carboxamide] | 6.58
13 | Cn1ccc(NC(=O)c2cc(Oc3ccc(S(C)(=O)=O)nc3)c3cn(C)nc3c2)n1 [Example 1AO, 2-methyl-N-(1-methyl-1H-pyrazol-3-yl)-4-{[6-(methylsulfonyl)pyridin-3-yl]oxy}-2H-indazole-6-carboxamide] | 5.89
14 | CCc1cnc(NC(=O)c2cc(Oc3ccc(S(C)(=O)=O)cc3)c3cn(CC)nc3c2)cn1 [Example 1BH, 2-ethyl-N-(5-ethylpyrazin-2-yl)-4-[4-(methylsulfonyl)phenoxy]-2H-indazole-6-carboxamide] | 6.27
15 | CCn1cc2c(Oc3ccc(S(N)(=O)=O)cc3)cc(C(=O)Nc3cnc(OC)cn3)cc2n1 [Example 1CS, 4-[4-(aminosulfonyl)phenoxy]-2-ethyl-N-(5-methoxypyrazin-2-yl)-2H-indazole-6-carboxamide] | 6.38
16 | CN(C)S(=O)(=O)c1ccc(Oc2cc(C(=O)Nc3ccn(C)n3)cc3nn(C)cc23)cc1 [Example 1BK, 4-{4-[(dimethylamino)sulfonyl]phenoxy}-2-methyl-N-(1-methyl-1H-pyrazol-3-yl)-2H-indazole-6-carboxamide] | 6.00
17 | CCn1cc2c(Oc3ccc(S(N)(=O)=O)cc3)cc(C(=O)Nc3ccn(C)n3)cc2n1 [Example 1CQ, 4-[4-(aminosulfonyl)phenoxy]-2-ethyl-N-(1-methyl-1H-pyrazol-3-yl)-2H-indazole-6-carboxamide] | 5.54
18 | Cc1cnc(NC(=O)c2cc(Oc3ccc(C(=O)N(C)C)cc3)c3cn(C)nc3c2)cn1 [Example 1AG, 4-(4-(dimethylcarbamoyl)phenoxy)-2-methyl-N-(5-methylpyrazin-2-yl)-2H-indazole-6-carboxamide] | 6.15
19 | CNS(=O)(=O)c1ccc(Oc2cc(C(=O)Nc3cnc(OC)cn3)cc3nn(C)cc23)cc1 [Example 1BN, N-(5-methoxypyrazin-2-yl)-2-methyl-4-{4-[(methylamino)sulfonyl]phenoxy}-2H-indazole-6-carboxamide] | 6.16
20 | CCn1cc2c(Oc3cnc(C(=O)N4CCOCC4)cn3)cc(C(=O)Nc3ccc(C)cn3)cc2n1 [Example 1CP, 2-ethyl-N-(5-methylpyridin-2-yl)-4-(5-(morpholine-4-carbonyl)pyrazin-2-yloxy)-2H-indazole-6-carboxamide] | 5.64
21 | CCn1cc2c(Oc3ccc(S(C)(=O)=O)cc3)cc(C(=O)Nc3ccn(C)n3)cc2n1 [Example 1CC, 2-ethyl-N-(1-methyl-1H-pyrazol-3-yl)-4-[4-(methylsulfonyl)phenoxy]-2H-indazole-6-carboxamide] | 5.92
22 | Cc1cnc(NC(=O)c2cc(Oc3ccc(S(=O)(=O)N(C)C)nc3)c3cn(C)nc3c2)cn1 [Example 1AL, 4-({6-[(dimethylamino)sulfonyl]pyridin-3-yl}oxy)-2-methyl-N-(5-methylpyrazin-2-yl)-2H-indazole-6-carboxamide] | 5.50

Same assay, conditions: Glucokinase EC50, Assay 2 matrix assay; 16 glucose concentrations; intrinsic EC50 = concentration affording a 50% reduction in the enzyme's Km (for glucose)

Row | SMILES | pEC50
23 | CCn1cc2c(Oc3cnc(C(=O)N4CCC4)c(F)c3)cc(C(=O)Nc3cnc(C)cn3)cc2n1 [Example 1AZ, 4-(6-(azetidine-1-carbonyl)-5-fluoropyridin-3-yloxy)-2-ethyl-N-(5-methylpyrazin-2-yl)-2H-indazole-6-carboxamide] | 6.97
